Assay results reported in ChEMBL document CHEMBL1255492, “Molecular characterization of beta-lactamase genes and their genetic structures in Acinetobacter genospecies 3 isolates in Taiwan” (2010).
Converted amounts (≈) assume the structure as drawn.

Legend:
Assay type in all cases: functional
Acinetobacter pittii [1] = assay: Antibacterial activity against Pulsotype F Acinetobacter genomosp. 3 isolate 4 containing IMP-1, OXA-58, ADC-18, ISAba1, ISAba3, IS18, IS1008, intI1 genetic elements by broth micro dilution
Acinetobacter pittii [2] = assay: Antibacterial activity against Pulsotype M Acinetobacter genomosp. 3 isolate 5 containing IMP-1, OXA-58, ADC-43, ISAba2, ISAba3, IS1008, intI1 genetic elements by broth micro dilution
Acinetobacter pittii [3] = assay: Antibacterial activity against Pulsotype K Acinetobacter genomosp. 3 isolate 6 containing IMP-1, OXA-58, ADC-18, ISAba1, ISAba3, IS1008, intI1 genetic elements by broth micro dilution
Acinetobacter pittii [4] = assay: Antibacterial activity against Pulsotype L Acinetobacter genomosp. 3 isolate 7 containing IMP-1, OXA-58, ADC-18, ISAba1, ISAba3, IS1008, intI1 genetic elements by broth micro dilution
Acinetobacter pittii [5] = assay: Antibacterial activity against Pulsotype B Acinetobacter genomosp. 3 isolate 8 containing IMP-1, OXA-58, ADC-18, ISAba1, ISAba3, IS1008, intI1 genetic elements by broth micro dilution
Acinetobacter pittii [6] = assay: Antibacterial activity against Pulsotype I Acinetobacter genomosp. 3 isolate 10 containing IMP-1, OXA-58, ADC-18, ISAba1, ISAba3, IS1008, intI1 genetic elements by broth micro dilution
Acinetobacter pittii [7] = assay: Antibacterial activity against Pulsotype I Acinetobacter genomosp. 3 isolate 11 containing IMP-1, OXA-58, ADC-18, ISAba1, ISAba3, IS1008, intI1 genetic elements by broth micro dilution
Acinetobacter pittii [8] = assay: Antibacterial activity against Pulsotype J Acinetobacter genomosp. 3 isolate 15 containing IMP-1, OXA-58, ADC-18, ISAba1, ISAba3, IS1008, intI1 genetic elements by broth micro dilution
Acinetobacter pittii [9] = assay: Antibacterial activity against Pulsotype D Acinetobacter genomosp. 3 isolate 18 containing IMP-1, OXA-58, ADC-18, ISAba1, ISAba3, repAcil, IS1008, intI1 genetic elements by broth micro dilution
Acinetobacter pittii [10] = assay: Antibacterial activity against Acinetobacter genomosp. 3 isolates by broth micro dilution
Acinetobacter pittii [11] = assay: Antibacterial activity against Acinetobacter genomosp. 3 isolates assessed as percent of resistance isolates by broth micro dilution
Acinetobacter pittii [12] = assay: Antibacterial activity against Pulsotype C Acinetobacter genomosp. 3 isolate 1 containing IMP-1, OXA-58, ADC-18, ISAba1, ISAba3, IS1008, intI1 genetic elements by broth micro dilution
Acinetobacter pittii [13] = assay: Antibacterial activity against Pulsotype L Acinetobacter genomosp. 3 isolate 2 containing IMP-8, OXA-58, ADC-43, ISAba1, ISAba3, IS1008, intI1 genetic elements by broth micro dilution
Acinetobacter pittii [14] = assay: Antibacterial activity against Pulsotype C Acinetobacter genomosp. 3 isolate 1 containing IMP-1, OXA-58, ADC-18, ISAba1, ISAba3, IS1008, intI1 genetic elements by agar dilution method
Acinetobacter pittii [15] = assay: Antibacterial activity against Pulsotype L Acinetobacter genomosp. 3 isolate 2 containing IMP-8, OXA-58, ADC-43, ISAba1, ISAba3, IS1008, intI1 genetic elements by agar dilution method
Acinetobacter pittii [16] = assay: Antibacterial activity against Pulsotype F Acinetobacter genomosp. 3 isolate 4 containing IMP-1, OXA-58, ADC-18, ISAba1, ISAba3, IS18, IS1008, intI1 genetic elements by agar dilution method
Acinetobacter pittii [17] = assay: Antibacterial activity against Pulsotype M Acinetobacter genomosp. 3 isolate 5 containing IMP-1, OXA-58, ADC-43, ISAba2, ISAba3, IS1008, intI1 genetic elements by agar dilution method
Acinetobacter pittii [18] = assay: Antibacterial activity against Pulsotype K Acinetobacter genomosp. 3 isolate 6 containing IMP-1, OXA-58, ADC-18, ISAba1, ISAba3, IS1008, intI1 genetic elements by agar dilution method
Acinetobacter pittii [19] = assay: Antibacterial activity against Pulsotype L Acinetobacter genomosp. 3 isolate 7 containing IMP-1, OXA-58, ADC-18, ISAba1, ISAba3, IS1008, intI1 genetic elements by agar dilution method
Acinetobacter pittii [20] = assay: Antibacterial activity against Pulsotype B Acinetobacter genomosp. 3 isolate 8 containing IMP-1, OXA-58, ADC-18, ISAba1, ISAba3, IS1008, intI1 genetic elements by agar dilution method
Acinetobacter pittii [21] = assay: Antibacterial activity against Pulsotype I Acinetobacter genomosp. 3 isolate 10 containing IMP-1, OXA-58, ADC-18, ISAba1, ISAba3, IS1008, intI1 genetic elements by agar dilution method
Acinetobacter pittii [22] = assay: Antibacterial activity against Pulsotype I Acinetobacter genomosp. 3 isolate 11 containing IMP-1, OXA-58, ADC-18, ISAba1, ISAba3, IS1008, intI1 genetic elements by agar dilution method
Acinetobacter pittii [23] = assay: Antibacterial activity against Pulsotype J Acinetobacter genomosp. 3 isolate 15 containing IMP-1, OXA-58, ADC-18, ISAba1, ISAba3, IS1008, intI1 genetic elements by agar dilution method
Acinetobacter pittii [24] = assay: Antibacterial activity against Pulsotype D Acinetobacter genomosp. 3 isolate 18 containing IMP-1, OXA-58, ADC-18, ISAba1, ISAba3, repAcil, IS1008, intI1 genetic elements by agar dilution method
Acinetobacter pittii [25] = assay: Antibacterial activity against Acinetobacter genomosp. 3 isolates by agar dilution method
Acinetobacter pittii [26] = assay: Antibacterial activity against Acinetobacter genomosp. 3 isolates assessed as percent of resistance isolates by agar dilution method
Enterobacteriaceae [27] = assay: Antibacterial activity against Enterobacteriaceae assessed as susceptibility breakpoint by CLSI method
Enterobacteriaceae [28] = assay: Antibacterial activity against Enterobacteriaceae assessed as intermediate breakpoint by CLSI method
Enterobacteriaceae [29] = assay: Antibacterial activity against Enterobacteriaceae assessed as resistant breakpoint by CLSI method

Row | Compound | MIC (Acinetobacter pittii [1]) [µg/mL] | MIC (Acinetobacter pittii [2]) [µg/mL] | MIC (Acinetobacter pittii [3]) [µg/mL] | MIC (Acinetobacter pittii [4]) [µg/mL] | MIC (Acinetobacter pittii [5]) [µg/mL] | MIC (Acinetobacter pittii [6]) [µg/mL] | MIC (Acinetobacter pittii [7]) [µg/mL] | MIC (Acinetobacter pittii [8]) [µg/mL] | MIC (Acinetobacter pittii [9]) [µg/mL] | MIC50 (Acinetobacter pittii [10]) [µg/mL] | MIC90 (Acinetobacter pittii [10]) [µg/mL] | Activity (Acinetobacter pittii [11]) [%] | MIC (Acinetobacter pittii [12]) [µg/mL] | MIC (Acinetobacter pittii [13]) [µg/mL] | further results
1 | C[C@@H](O)[C@H]1C(=O)N2C(C(=O)O)=C(S[C@@H]3CN[C@H](C(=O)N(C)C)C3)[C@H](C)[C@H]12 [MEROPENEM] | 64 (≈ 167 µM) | 16 (≈ 41.7 µM) | 32 (≈ 83.4 µM) | 16 (≈ 41.7 µM) | 16 (≈ 41.7 µM) | 32 (≈ 83.4 µM) | 16 (≈ 41.7 µM) | 32 (≈ 83.4 µM) | 32 (≈ 83.4 µM) | 16 (≈ 41.7 µM) | 32 (≈ 83.4 µM) | 57.9 | 16 (≈ 41.7 µM) | 16 (≈ 41.7 µM) | 
2 | CC1(C)[C@H](C(=O)O)N2C(=O)C[C@H]2S1(=O)=O [SULBACTAM] |  |  |  |  |  |  |  |  |  |  |  |  |  |  | MIC (Acinetobacter pittii [14]): 4 µg/mL (≈ 17.1 µM); MIC (Acinetobacter pittii [15]): 4 µg/mL (≈ 17.1 µM); MIC (Acinetobacter pittii [16]): 2 µg/mL (≈ 8.57 µM); MIC (Acinetobacter pittii [17]): 2 µg/mL (≈ 8.57 µM); MIC (Acinetobacter pittii [18]): 4 µg/mL (≈ 17.1 µM); MIC (Acinetobacter pittii [19]): 4 µg/mL (≈ 17.1 µM); MIC (Acinetobacter pittii [20]): 2 µg/mL (≈ 8.57 µM); MIC (Acinetobacter pittii [21]): 4 µg/mL (≈ 17.1 µM); MIC (Acinetobacter pittii [22]): 4 µg/mL (≈ 17.1 µM); MIC (Acinetobacter pittii [23]): 4 µg/mL (≈ 17.1 µM); MIC (Acinetobacter pittii [24]): 4 µg/mL (≈ 17.1 µM); MIC50 (Acinetobacter pittii [25]): 2 µg/mL (≈ 8.57 µM); MIC90 (Acinetobacter pittii [25]): 4 µg/mL (≈ 17.1 µM); Activity (Acinetobacter pittii [26]): 0%
3 | CO/N=C(\C(=O)N[C@@H]1C(=O)N2C(C(=O)[O-])=C(C[N+]3(C)CCCC3)CS[C@H]12)c1csc(N)n1 [CEFEPIME] | > 16 | > 16 | > 16 | > 16 | > 16 | > 16 | > 16 | > 16 | > 16 | ≥ 32 | ≥ 32 | 63.2 | > 16 | > 16 | 
4 | NCC[C@H](O)C(=O)N[C@@H]1C[C@H](N)[C@@H](O[C@H]2O[C@H](CN)[C@@H](O)[C@H](O)[C@H]2O)[C@H](O)[C@H]1O[C@H]1O[C@H](CO)[C@@H](O)[C@H](N)[C@H]1O [AMIKACIN] |  |  |  |  |  |  |  |  |  | 32 (≈ 54.6 µM) | ≥ 64 | 52.6 |  |  | 
5 | CO/N=C(\C(=O)N[C@@H]1C(=O)N2C(C(=O)O)=C(CSc3nc(=O)c(O)nn3C)CS[C@H]12)c1csc(N)n1 [CEFTRIAXONE] | > 32 | > 32 | > 32 | > 32 | > 32 | > 32 | > 32 | > 32 | > 32 | ≥ 64 | ≥ 64 | 63.2 | > 32 | > 32 | 
6 | COLISTIN |  |  |  |  |  |  |  |  |  | 1 | 2 | 0 |  |  | 
7 | CN(C)c1cc(NC(=O)CNC(C)(C)C)c(O)c2c1C[C@H]1C[C@H]3[C@H](N(C)C)C(O)=C(C(N)=O)C(=O)[C@@]3(O)C(O)=C1C2=O [TIGECYCLINE] |  |  |  |  |  |  |  |  |  | 0.12 (≈ 0.205 µM) | 0.5 (≈ 0.854 µM) | 0 |  |  | Activity (Enterobacteriaceae [27]): <=2 ug ml-1; Activity (Enterobacteriaceae [28]): 4 µg/mL; Activity (Enterobacteriaceae [29]): >=8 ug ml-1
8 | CC(C)(O/N=C(\C(=O)N[C@@H]1C(=O)N2C(C(=O)[O-])=C(C[n+]3ccccc3)CS[C@H]12)c1csc(N)n1)C(=O)O [CEFTAZIDIME] | > 32 | > 32 | > 32 | > 32 | > 32 | > 32 | > 32 | > 32 | > 32 | ≥ 64 | ≥ 64 | 68.4 | > 32 | > 32 | 
9 | CCN1CCN(C(=O)N[C@@H](C(=O)N[C@@H]2C(=O)N3[C@@H]2SC(C)(C)[C@@H]3C(=O)O)c2ccccc2)C(=O)C1=O [PIPERACILLIN] | > 64 | > 64 | > 64 | > 64 | > 64 | > 64 | > 64 | > 64 | 32 (≈ 61.8 µM) | ≥ 128 | ≥ 128 | 63.2 | > 64 | > 64 | 
10 | NC[C@H]1O[C@H](O[C@H]2[C@H](O)[C@@H](O[C@H]3O[C@H](CO)[C@@H](O)[C@H](N)[C@H]3O)[C@H](N)C[C@@H]2N)[C@H](N)C[C@@H]1O [TOBRAMYCIN] |  |  |  |  |  |  |  |  |  | 8 (≈ 17.1 µM) | ≥ 16 | 42.1 |  |  | 
11 | GENTAMICIN |  |  |  |  |  |  |  |  |  | 8 | > 16 | 52.6 |  |  | 
12 | C[C@@H](O)[C@H]1C(=O)N2C(C(=O)O)=C(SCCNC=N)C[C@H]12 [IMIPENEM ANHYDROUS] | 64 (≈ 214 µM) | 16 (≈ 53.4 µM) | 16 (≈ 53.4 µM) | 32 (≈ 107 µM) | 32 (≈ 107 µM) | 32 (≈ 107 µM) | 32 (≈ 107 µM) | 16 (≈ 53.4 µM) | 32 (≈ 107 µM) | 16 (≈ 53.4 µM) | 32 (≈ 107 µM) | 57.9 | 32 (≈ 107 µM) | 32 (≈ 107 µM) | 
13 | O=C(O)c1cn(C2CC2)c2cc(N3CCNCC3)c(F)cc2c1=O [CIPROFLOXACIN] |  |  |  |  |  |  |  |  |  | 0.25 (≈ 0.754 µM) | 2 (≈ 6.04 µM) | 5.3 |  |  | 
14 | C[C@H]1[C@H](NC(=O)/C(=N\OC(C)(C)C(=O)O)c2csc(N)n2)C(=O)N1S(=O)(=O)O [AZTREONAM] | > 16 | > 16 | > 16 | > 16 | > 16 | > 16 | > 16 | > 16 | > 16 | ≥ 32 | ≥ 32 | 94.7 | > 16 | > 16 | 
